Assay results taken from patent publication US8796289B2 (AbbVie Inc., priority 2011, dated 2014).

Biological target: GST-tagged-Wee1 kinase (Homo sapiens, UniProt P30291)
Experiment: Wee1 time-resolved fluorescence equilibrium binding assay (displacement of Oregon Green-labeled ATP-competitive kinase probe)
Description: Wee1 kinase was assayed using a time-resolved fluorescence equilibrium binding assay monitoring displacement of a rapidly reversible Oregon Green-labeled ATP-competitive kinase probe (N-(2-(2-(2-(4-(4-(5-chloro-4-(2-(1-hydroxycyclobutyl)thiazol-5-yl)-1H-pyrrolo[2,3-b]pyridin-2-yl)phenyl)piperazin-1-yl)ethoxy)ethoxy)ethyl)-2′,7′-difluoro-3′,6′-dihydroxy-3-oxo-3H-spiro[isobenzofuran-1,9′-xanthene]-5-carboxamide) by competitive Wee1 inhibitors.

Sequence of GST-tagged-Wee1 kinase (P30291 whole entry): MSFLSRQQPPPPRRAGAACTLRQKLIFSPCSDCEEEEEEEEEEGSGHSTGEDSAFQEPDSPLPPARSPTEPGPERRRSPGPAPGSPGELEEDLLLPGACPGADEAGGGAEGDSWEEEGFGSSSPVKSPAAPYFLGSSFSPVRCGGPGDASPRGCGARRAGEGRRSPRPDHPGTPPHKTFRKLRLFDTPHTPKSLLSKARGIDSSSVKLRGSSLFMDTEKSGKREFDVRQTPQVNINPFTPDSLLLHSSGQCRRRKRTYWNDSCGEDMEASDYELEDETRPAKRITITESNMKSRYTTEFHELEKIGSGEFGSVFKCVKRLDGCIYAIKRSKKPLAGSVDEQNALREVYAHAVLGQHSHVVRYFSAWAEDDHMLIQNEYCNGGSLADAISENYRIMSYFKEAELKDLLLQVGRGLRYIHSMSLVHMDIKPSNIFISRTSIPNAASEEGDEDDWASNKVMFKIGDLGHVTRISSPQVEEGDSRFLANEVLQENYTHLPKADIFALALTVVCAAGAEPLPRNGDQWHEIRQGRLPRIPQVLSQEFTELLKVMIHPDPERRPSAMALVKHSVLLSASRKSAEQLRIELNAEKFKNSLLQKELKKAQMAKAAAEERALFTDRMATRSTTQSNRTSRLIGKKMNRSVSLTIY

Compound	Ki
CCc1nn(-c2c(Cl)cccc2Cl)c(=O)c2cnc(Nc3ccc4c(c3)C(C)(C)NCC4)nc12 [Example 463, 6-(2,6-dichlorophenyl)-2-[(1,1-dimethyl-1,2,3,4-tetrahydroisoquinolin-7-yl)amino]-8-ethylpyrimido[4,5-d]pyridazin-5(6H)-one]	0.55 nM
CCc1nn(-c2c(Cl)cccc2Cl)c(=O)c2cnc(Nc3ccc4c(c3)CNC(=O)C4)nc12 [Example 464, 6-(2,6-dichlorophenyl)-8-ethyl-2-[(3-oxo-1,2,3,4-tetrahydroisoquinolin-7-yl)amino]pyrimido[4,5-d]pyridazin-5(6H)-one]	1.6 nM
CCc1nn(-c2c(Cl)cccc2Cl)c(=O)c2cnc(Nc3ccc(CN4CCN(C)CC4)cc3)nc12 [Example 465, 6-(2,6-dichlorophenyl)-8-ethyl-2-({4-[(4-methylpiperazin-1-yl)methyl]phenyl}amino)pyrimido[4,5-d]pyridazin-5(6H)-one]	0.88 nM
CCc1nn(-c2c(Cl)cccc2Cl)c(=O)c2cnc(Nc3ccc(N4C[C@H]5C[C@@H]4CN5)cc3)nc12 [Example 468, 2-({4-[(1R,4R)-2,5-diazabicyclo[2.2.1]hept-2-yl]phenyl}amino)-6-(2,6-dichlorophenyl)-8-ethylpyrimido[4,5-d]pyridazin-5(6H)-one]	0.69 nM
CCc1nn(-c2c(Cl)cccc2Cl)c(=O)c2cnc(Nc3ccc(N4CCCN(C)CC4)c(C)c3)nc12 [Example 469, 6-(2,6-dichlorophenyl)-8-ethyl-2-{[3-methyl-4-(4-methyl-1,4-diazepan-1-yl)phenyl]amino}pyrimido[4,5-d]pyridazin-5(6H)-one]	0.63 nM
CCc1nn(-c2c(Cl)cccc2Cl)c(=O)c2cnc(Nc3ccc(N4CCNC(=O)C4)cc3)nc12 [Example 470, 6-(2,6-dichlorophenyl)-8-ethyl-2-{[4-(3-oxopiperazin-1-yl)phenyl]amino}pyrimido[4,5-d]pyridazin-5(6H)-one]	0.99 nM
Cc1nn(-c2c(Cl)cccc2Cl)c(=O)c2cnc(Nc3cc4c(cc3Cl)CNCC4)nc12 [Example 472, 2-[(7-chloro-1,2,3,4-tetrahydroisoquinolin-6-yl)amino]-6-(2,6-dichlorophenyl)-8-methylpyrimido[4,5-d]pyridazin-5(6H)-one]	2.3 nM
O=c1c2cnc(Nc3ccc4c(c3)CCNC4)nc2c(C(F)F)nn1-c1c(Cl)cccc1Cl [Example 473, 6-(2,6-dichlorophenyl)-8-(difluoromethyl)-2-(1,2,3,4-tetrahydroisoquinolin-6-ylamino)pyrimido[4,5-d]pyridazin-5(6H)-one]	0.38 nM
CN1CCc2ccc(Nc3ncc4c(=O)n(-c5c(Cl)cccc5Cl)nc(C(F)F)c4n3)cc2C1 [Example 475, 6-(2,6-dichlorophenyl)-8-(difluoromethyl)-2-[(2-methyl-1,2,3,4-tetrahydroisoquinolin-7-yl)amino]pyrimido[4,5-d]pyridazin-5(6H)-one]	0.24 nM
CC(=O)N1CCc2cc(Nc3ncc4c(=O)n(-c5c(Cl)cccc5Cl)nc(C(F)F)c4n3)ccc2C1 [Example 476, 2-[(2-acetyl-1,2,3,4-tetrahydroisoquinolin-6-yl)amino]-6-(2,6-dichlorophenyl)-8-(difluoromethyl)pyrimido[4,5-d]pyridazin-5(6H)-one]	0.17 nM
CC(=O)N1CCc2ccc(Nc3ncc4c(=O)n(-c5c(Cl)cccc5Cl)nc(C(F)F)c4n3)cc2C1 [Example 477, 2-[(2-acetyl-1,2,3,4-tetrahydroisoquinolin-7-yl)amino]-6-(2,6-dichlorophenyl)-8-(difluoromethyl)pyrimido[4,5-d]pyridazin-5(6H)-one]	0.67 nM
O=c1c2cnc(Nc3ccc(C4CCCNC4)cc3)nc2c(C(F)F)nn1-c1c(Cl)cccc1Cl (stereo not shown) [Example 479, 6-(2,6-dichlorophenyl)-8-(difluoromethyl)-2-{[4-(piperidin-3-yl)phenyl]amino}pyrimido[4,5-d]pyridazin-5(6H)-one]	0.29 nM
Cc1nn(-c2c(Cl)cccc2Cl)c(=O)c2cnc(Nc3cc4c(cc3F)CNCC4)nc12 [Example 480, 6-(2,6-dichlorophenyl)-2-[(7-fluoro-1,2,3,4-tetrahydroisoquinolin-6-yl)amino]-8-methylpyrimido[4,5-d]pyridazin-5(6H)-one]	1.3 nM
CN1Cc2cc(Nc3ncc4c(=O)n(-c5c(Cl)cccc5Cl)nc(C(F)F)c4n3)ccc2C1(C)C [Example 485, 6-(2,6-dichlorophenyl)-8-(difluoromethyl)-2-[(1,1,2-trimethyl-2,3-dihydro-1H-isoindol-5-yl)amino]pyrimido[4,5-d]pyridazin-5(6H)-one]	0.15 nM
CN1CCCC(c2ccc(Nc3ncc4c(=O)n(-c5c(Cl)cccc5Cl)nc(C(F)F)c4n3)cc2)C1 (stereo not shown) [Example 486, 6-(2,6-dichlorophenyl)-8-(difluoromethyl)-2-{[4-(1-methylpiperidin-3-yl)phenyl]amino}pyrimido[4,5-d]pyridazin-5(6H)-one]	0.13 nM
Cc1nn(-c2c(Cl)cncc2Cl)c(=O)c2cnc(Nc3ccc4c(c3)CN(C)CC43CC3)nc12 [Example 487, 6-(3,5-dichloropyridin-4-yl)-8-methyl-2-[(2′-methyl-2′,3′-dihydro-1′H-spiro[cyclopropane-1,4′-isoquinolin]-7′-yl)amino]pyrimido[4,5-d]pyridazin-5(6H)-one]	0.27 nM
Cc1nn(-c2c(Cl)cncc2Cl)c(=O)c2cnc(Nc3ccc4c(c3)CN(C)C4(C)C)nc12 [Example 488, 6-(3,5-dichloropyridin-4-yl)-8-methyl-2-[(1,1,2-trimethyl-2,3-dihydro-1H-isoindol-5-yl)amino]pyrimido[4,5-d]pyridazin-5(6H)-one]	0.29 nM
CCc1nn(-c2c(Cl)cccc2Cl)c(=O)c2cnc(Nc3ccc4c(c3)CCN(C)C4)nc12 [Example 492, 6-(2,6-dichlorophenyl)-8-ethyl-2-[(2-methyl-1,2,3,4-tetrahydroisoquinolin-6-yl)amino]pyrimido[4,5-d]pyridazin-5(6H)-one]	0.56 nM
CCc1nn(-c2c(Cl)cccc2Cl)c(=O)c2cnc(Nc3ccc4c(c3)CN(C)CC4)nc12 [Example 493, 6-(2,6-dichlorophenyl)-8-ethyl-2-[(2-methyl-1,2,3,4-tetrahydroisoquinolin-7-yl)amino]pyrimido[4,5-d]pyridazin-5(6H)-one]	0.86 nM
CCc1nn(-c2c(Cl)cccc2Cl)c(=O)c2cnc(Nc3ccc4c(c3)CN(C)C4)nc12 [Example 494, 6-(2,6-dichlorophenyl)-8-ethyl-2-[(2-methyl-2,3-dihydro-1H-isoindol-5-yl)amino]pyrimido[4,5-d]pyridazin-5(6H)-one]	0.31 nM

The remaining lines, values ahead:

Ki	Compound
0.34 nM	CCc1nn(-c2c(Cl)cccc2Cl)c(=O)c2cnc(Nc3ccc4c(c3)CCNC4(C)C)nc12 [Example 466, 6-(2,6-dichlorophenyl)-2-[(1,1-dimethyl-1,2,3,4-tetrahydroisoquinolin-6-yl)amino]-8-ethylpyrimido[4,5-d]pyridazin-5(6H)-one]
0.47 nM	Cc1nn(-c2c(Cl)cccc2Cl)c(=O)c2cnc(Nc3ccc4c(c3)CNC(=O)C4)nc12 [Example 467, 6-(2,6-dichlorophenyl)-8-methyl-2-[(3-oxo-1,2,3,4-tetrahydroisoquinolin-7-yl)amino]pyrimido[4,5-d]pyridazin-5(6H)-one]
0.16 nM	Cc1nn(-c2c(Cl)cccc2Cl)c(=O)c2cnc(Nc3ccc4c(c3)CN(C)C4(C)C)nc12 [Example 471, 6-(2,6-dichlorophenyl)-8-methyl-2-[(1,1,2-trimethyl-2,3-dihydro-1H-isoindol-5-yl)amino]pyrimido[4,5-d]pyridazin-5(6H)-one]
0.17 nM	CC1(C)CNCc2cc(Nc3ncc4c(=O)n(-c5c(Cl)cccc5Cl)nc(C(F)F)c4n3)ccc21 [Example 478]
0.73 nM	Cc1nn(-c2ccccc2Cl)c(=O)c2cnc(Nc3ccc4c(c3)CCNC4)nc12 [Example 481, 6-(2-chlorophenyl)-8-methyl-2-(1,2,3,4-tetrahydroisoquinolin-6-ylamino)pyrimido[4,5-d]pyridazin-5(6H)-one]
0.31 nM	Cc1nn(-c2ccccc2Cl)c(=O)c2cnc(Nc3ccc4c(c3)CNCC4(C)C)nc12 [Example 482, 6-(2-chlorophenyl)-2-[(4,4-dimethyl-1,2,3,4-tetrahydroisoquinolin-7-yl)amino]-8-methylpyrimido[4,5-d]pyridazin-5(6H)-one]
0.55 nM	Cc1nn(-c2ccccc2Cl)c(=O)c2cnc(Nc3ccc4c(c3)CN(C)CC4(C)C)nc12 [Example 483, 6-(2-chlorophenyl)-8-methyl-2-[(2,4,4-trimethyl-1,2,3,4-tetrahydroisoquinolin-7-yl)amino]pyrimido[4,5-d]pyridazin-5(6H)-one]
0.17 nM	Cc1nn(-c2ccccc2Cl)c(=O)c2cnc(Nc3ccc4c(c3)CC(N(C)C)C4)nc12 (stereo not shown) [Example 484, 6-(2-chlorophenyl)-2-{[2-(dimethylamino)-2,3-dihydro-1H-inden-5-yl]amino}-8-methylpyrimido[4,5-d]pyridazin-5(6H)-one]
0.089 nM	Cc1nn(-c2c(Cl)cccc2Cl)c(=O)c2cnc(Nc3ccc4c(c3)CNC4(C)C)nc12 [Example 489, 6-(2,6-dichlorophenyl)-2-[(1,1-dimethyl-2,3-dihydro-1H-isoindol-5-yl)amino]-8-methylpyrimido[4,5-d]pyridazin-5(6H)-one]
0.11 nM	Cc1nn(-c2c(Cl)cccc2Cl)c(=O)c2cnc(Nc3ccc4c(c3)CN(C)CC4)nc12 [Example 490, 6-(2,6-dichlorophenyl)-8-methyl-2-[(2-methyl-1,2,3,4-tetrahydroisoquinolin-7-yl)amino]pyrimido[4,5-d]pyridazin-5(6H)-one]
0.26 nM	Cc1nn(-c2c(Cl)cccc2Cl)c(=O)c2cnc(Nc3ccc4c(c3)CN(C)C4)nc12 [Example 491, 6-(2,6-dichlorophenyl)-8-methyl-2-[(2-methyl-2,3-dihydro-1H-isoindol-5-yl)amino]pyrimido[4,5-d]pyridazin-5(6H)-one]
